According to ChEMBL document CHEMBL5154804, “Species-Selective Targeting of Fungal Hsp90: Design, Synthesis, and Evaluation of Novel 4,5-Diarylisoxazole Derivatives for the Combination Treatment of Azole-Resistant Candidiasis” (J Med Chem, 2022):
Calls of active or inactive are those of the source. No cut-off for these calls is given here.

What was measured:
[1] = system: Candida albicans; assay: Induction of morphological changes in Candida albicans 904 assessed as hyphal formation by measuring CPH1 level incubated for 4 hrs in presence of fluconazole; format: functional, organism-based
[2] = system: Candida albicans; assay: Induction of morphological changes in Candida albicans 904 assessed as hyphal formation by measuring EFG1 level incubated for 4 hrs in presence of fluconazole; format: functional, organism-based
[3] = system: Candida albicans; assay: Potentiation of fluconazole-induced antifungal activity against fluconazole-resistant Candida albicans 103 assessed as fluconazole MIC by checker board microdilution assay; format: functional
[4] = system: Candida albicans; assay: Antifungal activity against fluconazole-resistant Candida albicans 100 assessed as inhibition of fungal growth by checker board microdilution assay; format: functional
[5] = system: Candida albicans; assay: Synergetic antifungal activity against fluconazole-resistant Candida albicans 100 assessed as fractional inhibitory concentration index in presence of fluconazole by checker board microdilution assay; format: functional
[6] = system: Candida albicans; assay: Antifungal activity against fluconazole-resistant Candida albicans 904 assessed as inhibition of fungal growth by checker board microdilution assay; format: functional
[7] = system: Candida albicans; assay: Antifungal activity against fluconazole-resistant Candida albicans 103 assessed as inhibition of fungal growth by checker board microdilution assay; format: functional
[8] = system: Candida albicans; assay: Synergetic antifungal activity against fluconazole-resistant Candida albicans 901 assessed as fractional inhibitory concentration index in presence of fluconazole by checker board microdilution assay; format: functional
[9] = system: Candida albicans; assay: Potentiation of fluconazole-induced antifungal activity against fluconazole-resistant Candida albicans 904 assessed as fluconazole MIC by checker board microdilution assay; format: functional
[10] = system: Candida albicans; assay: Synergetic antifungal activity against fluconazole-resistant Candida albicans 311 assessed as fractional inhibitory concentration index in presence of fluconazole by checker board microdilution assay; format: functional
[11] = target: T1, CYP1A2 (Homo sapiens, UniProt P05177); assay: Inhibition of CYP1A2 in human liver microsome at 10 uM using phenacetin as substrate incubated for 10 mins in presence of NADPH cofactor by LC-MS/MS analysis; format: ADME; conditions: liver microsomes, probe phenacetin
T1 sequence (P05177 whole entry): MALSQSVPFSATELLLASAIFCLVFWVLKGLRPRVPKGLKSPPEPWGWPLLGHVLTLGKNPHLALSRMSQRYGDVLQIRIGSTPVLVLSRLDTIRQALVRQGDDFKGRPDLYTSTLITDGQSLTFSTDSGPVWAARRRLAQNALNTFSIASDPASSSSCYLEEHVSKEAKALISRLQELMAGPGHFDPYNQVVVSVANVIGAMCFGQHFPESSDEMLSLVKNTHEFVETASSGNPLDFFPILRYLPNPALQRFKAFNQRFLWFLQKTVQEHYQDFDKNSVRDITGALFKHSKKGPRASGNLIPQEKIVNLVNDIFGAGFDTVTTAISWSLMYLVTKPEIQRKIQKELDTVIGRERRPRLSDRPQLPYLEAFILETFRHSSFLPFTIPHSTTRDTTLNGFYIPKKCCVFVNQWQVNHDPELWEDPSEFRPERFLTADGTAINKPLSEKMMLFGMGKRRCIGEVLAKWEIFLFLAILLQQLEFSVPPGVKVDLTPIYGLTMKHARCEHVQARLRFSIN

[12] = system: Candida albicans; assay: Antibiofilm activity against Candida albicans 904 assessed as inhibition of […] metabolism within the biofilm after 24 hrs by XTT reduction assay; format: functional
[13] = system: Candida albicans; assay: Antifungal activity against fluconazole-resistant Candida albicans 311 assessed as inhibition of fungal growth by checker board microdilution assay; format: functional
[14] = system: Candida albicans; assay: Synergetic antifungal activity against fluconazole-resistant Candida albicans 632 assessed as fractional inhibitory concentration index in presence of fluconazole by checker board microdilution assay; format: functional
[15] = target: CYP2D6 (Homo sapiens, UniProt P10635); assay: Inhibition of CYPD6 in human liver microsome at 10 uM using dextromethorphan as substrate incubated for 10 mins in presence of NADPH cofactor by LC-MS/MS analysis; format: ADME; conditions: liver microsomes, probe dextromethorphan
CYP2D6, sequence (P10635 whole entry): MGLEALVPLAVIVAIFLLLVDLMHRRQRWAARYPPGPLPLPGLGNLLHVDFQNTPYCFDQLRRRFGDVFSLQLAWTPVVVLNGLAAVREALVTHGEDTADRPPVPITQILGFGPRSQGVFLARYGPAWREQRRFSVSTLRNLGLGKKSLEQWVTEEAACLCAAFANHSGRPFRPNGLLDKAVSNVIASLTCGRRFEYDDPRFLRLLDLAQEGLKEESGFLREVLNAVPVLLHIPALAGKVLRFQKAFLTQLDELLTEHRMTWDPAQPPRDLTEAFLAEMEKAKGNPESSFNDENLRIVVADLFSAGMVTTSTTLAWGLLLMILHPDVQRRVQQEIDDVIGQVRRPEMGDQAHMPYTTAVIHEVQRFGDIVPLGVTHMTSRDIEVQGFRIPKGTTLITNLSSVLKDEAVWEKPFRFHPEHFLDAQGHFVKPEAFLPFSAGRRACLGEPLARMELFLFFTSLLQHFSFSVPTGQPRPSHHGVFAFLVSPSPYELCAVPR

[16] = target: CYP2C9 (Homo sapiens, UniProt P11712); assay: Inhibition of CYP2C9 in human liver microsome at 10 uM using diclofenac as substrate incubated for 10 mins in presence of NADPH cofactor by LC-MS/MS analysis; format: ADME; conditions: liver microsomes, probe diclofenac
CYP2C9, sequence (P11712 whole entry): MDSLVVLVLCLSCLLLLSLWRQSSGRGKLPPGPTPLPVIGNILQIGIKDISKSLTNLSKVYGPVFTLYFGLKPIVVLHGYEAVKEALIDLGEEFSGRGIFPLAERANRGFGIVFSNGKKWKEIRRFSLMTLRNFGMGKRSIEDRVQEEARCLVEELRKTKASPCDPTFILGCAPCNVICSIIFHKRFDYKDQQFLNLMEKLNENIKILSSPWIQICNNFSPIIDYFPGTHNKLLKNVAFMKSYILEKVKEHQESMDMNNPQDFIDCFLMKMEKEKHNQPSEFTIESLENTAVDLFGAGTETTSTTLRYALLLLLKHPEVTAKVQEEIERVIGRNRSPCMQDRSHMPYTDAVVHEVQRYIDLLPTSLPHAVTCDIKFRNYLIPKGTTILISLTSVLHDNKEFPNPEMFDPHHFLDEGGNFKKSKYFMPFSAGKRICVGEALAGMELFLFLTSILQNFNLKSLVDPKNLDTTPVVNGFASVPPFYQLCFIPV

[17] = Stability in human plasma assessed as half life at 120 mins by LC-MS/MS analysis; format: ADME, cell-free
[18] = system: MCF7; assay: Cytotoxicity against human MCF7 cell assessed as inhibition of cell growth after 24 hrs by MTT assay; format: functional, cell-based; conditions: MCF7, 24 h
[19] = system: Candida albicans; assay: Fungicidal activity against Candida albicans 904 assessed as colony forming at 4 times MIC in presence of fluconazole incubated for 48 hrs by time-kill curve assay; format: functional
[20] = system: Candida albicans; assay: Potentiation of fluconazole-induced antifungal activity against fluconazole-resistant Candida albicans 901 assessed as fluconazole MIC by checker board microdilution assay; format: functional
[21] = system: Candida albicans; assay: Ratio of MFC for Candida albicans 904 to MIC for Candida albicans 904 in presence of fluconazole; format: functional
[22] = system: Candida albicans; assay: Synergistic antibiofilm activity in Candida albicans 904 assessed as downregulation of TEC1 at 32 ug/ml incubated for 24 hrs in presence of fluconazole by RT-PCR analysis; format: functional, organism-based; conditions: dose 32.0 µg/ml
[23] = system: Candida albicans; assay: Synergistic antifungal activity against fluconazole-resistant Candida albicans 904 assessed as inhibition of fungal growth in presence of fluconazole by checker board microdilution assay; format: functional
[24] = system: Candida albicans; assay: Synergistic antibiofilm activity against Candida albicans 904 assessed as inhibition of […] metabolism within the biofilm in presence of fluconazole after 24 hrs by XTT reduction assay; format: functional
[25] = system: Candida albicans; assay: Induction of morphological changes in Candida albicans 904 assessed as hyphal formation by measuring TEC1 level incubated for 4 hrs in presence of fluconazole; format: functional, organism-based
[26] = system: Candida albicans; assay: Antifungal activity against fluconazole-resistant Candida albicans 901 assessed as inhibition of fungal growth by checker board microdilution assay; format: functional
[27] = system: Candida albicans; assay: Synergistic antibiofilm activity in Candida albicans 904 assessed as downregulation of EFG1 at 32 ug/ml incubated for 24 hrs in presence of fluconazole by RT-PCR analysis; format: functional, organism-based; conditions: dose 32.0 µg/ml
[28] = Cytotoxicity against human THLE-2 cell assessed as inhibition of cell growth after 24 hrs by MTT assay; format: toxicity, cell-based; conditions: THLE-2 cells
[29] = Cytotoxicity against mouse BV-2 cell assessed as inhibition of cell growth after 24 hrs by MTT assay; format: toxicity, cell-based; conditions: BV-2 cells
[30] = system: Candida albicans; assay: Synergetic antifungal activity against fluconazole-resistant Candida albicans 103 assessed as fractional inhibitory concentration index in presence of fluconazole by checker board microdilution assay; format: functional
[31] = system: Candida albicans; assay: Synergistic antifungal activity against fluconazole-resistant Candida albicans 632 assessed as inhibition of fungal growth in presence of fluconazole by checker board microdilution assay; format: functional
[32] = system: Candida albicans; assay: Synergistic antifungal activity against fluconazole-resistant Candida albicans 103 assessed as inhibition of fungal growth in presence of fluconazole by checker board microdilution assay; format: functional
[33] = system: Candida albicans; assay: Synergistic antibiofilm activity in Candida albicans 904 assessed as downregulation of CPH1 at 32 ug/ml incubated for 24 hrs in presence of fluconazole by RT-PCR analysis; format: functional, organism-based; conditions: dose 32.0 µg/ml
[34] = Cytotoxicity against mouse NIH3T3 cell assessed as inhibition of cell growth after 24 hrs by MTT assay; format: toxicity, cell-based; conditions: NIH3T3 cells
[35] = system: Candida albicans; assay: Synergistic antifungal activity against fluconazole-resistant Candida albicans 100 assessed as inhibition of fungal growth in presence of fluconazole by checker board microdilution assay; format: functional

## CNC(=O)c1noc(-c2cc(-c3ccc(C)cc3)c(O)cc2O)c1-c1ccc(CN2CCOCC2)cc1
[1]
  Activity: Active
[2]
  Activity: Active
[3]
  MIC80: 2 µg/mL
[4]
  MIC80: > 64 µg/mL
[5]
  fractional inhibitory concentration index (FICI): 0.035
[6]
  MIC80: > 64 µg/mL
[7]
  MIC80: > 64 µg/mL
[8]
  fractional inhibitory concentration index (FICI): 0.039
[9]
  MIC80: 1 µg/mL
[10]
  fractional inhibitory concentration index (FICI): 0.062
[11]
  inhibition at 10 min, 10 µM: 9.9%
[12]
  MIC50: > 64 µg/mL
[13]
  MIC80: > 64 µg/mL
[14]
  fractional inhibitory concentration index (FICI): 0.016
[15]
  inhibition at 10 min, 10 µM: 86.3%
[16]
  inhibition at 10 min, 10 µM: 25.2%
[17]
  half-life: > 4.8 h
[18]
  IC50: 21.5 µM
[19]
  MFC: 0.5 µg/mL
[20]
  MIC80: 2 µg/mL
[21]
  Ratio: 2
[22]
  Activity: Active
[23]
  MIC80: 0.25 µg/mL
[24]
  MIC50: 1 µg/mL
[25]
  Activity: Active
[26]
  MIC80: > 64 µg/mL
[27]
  Activity: Active
[28]
  IC50 at 24 h: 10.6 µM
[29]
  IC50 at 24 h: 11.1 µM
[30]
  fractional inhibitory concentration index (FICI): 0.047
[31]
  MIC80: 0.5 µg/mL
[32]
  MIC80: 1 µg/mL
[33]
  Activity: Active
[34]
  IC50 at 24 h: 8.63 µM
[35]
  MIC80: 0.25 µg/mL

## CCNC(=O)c1noc(-c2cc(-c3ccc(C)cc3)c(O)cc2O)c1-c1ccc(CN2CCOCC2)cc1
[1]
  Activity: Active
[2]
  Activity: Active
[3]
  MIC80: 2 µg/mL
[4]
  MIC80: > 64 µg/mL
[5]
  fractional inhibitory concentration index (FICI): 0.033
[6]
  MIC80: > 64 µg/mL
[7]
  MIC80: > 64 µg/mL
[8]
  fractional inhibitory concentration index (FICI): 0.018
[9]
  MIC80: 2 µg/mL
[10]
  fractional inhibitory concentration index (FICI): 0.035
[11]
  inhibition at 10 min, 10 µM: 8%
[12]
  MIC50: > 64 µg/mL
[13]
  MIC80: > 64 µg/mL
[14]
  fractional inhibitory concentration index (FICI): 0.033
[15]
  inhibition at 10 min, 10 µM: 36.9%
[16]
  inhibition at 10 min, 10 µM: 36.5%
[17]
  half-life: > 4.8 h
[18]
  IC50: 34.1 µM
[19]
  MFC: 0.25 µg/mL
[20]
  MIC80: 1 µg/mL
[21]
  Ratio: 1
[22]
  Activity: Active
[23]
  MIC80: 0.25 µg/mL
[24]
  MIC50: 0.25 µg/mL
[25]
  Activity: Active
[26]
  MIC80: > 64 µg/mL
[27]
  Activity: Active
[28]
  IC50 at 24 h: 7.15 µM
[29]
  IC50 at 24 h: 10.3 µM
[30]
  fractional inhibitory concentration index (FICI): 0.035
[31]
  MIC80: 0.125 µg/mL
[32]
  MIC80: 0.25 µg/mL
[33]
  Activity: Active
[34]
  IC50 at 24 h: 21.3 µM
[35]
  MIC80: 0.125 µg/mL
